Measured values as given in US12653190B2, “Heteroaryl-triazole compounds as pesticides” (Bayer Aktiengesellschaft, priority 2020, dated 2026).

What was measured:
Format in all cases: in vivo
[1] = system: adult unfed cat fleas (Ctenocephalides felis); test: Ctenocephalides felis oral test; details: 48 h, 100 ppm in cattle blood, after 2 days
Procedure: Ctenocephalides felis—Oral Test
(§1) • Solvent: dimethyl sulfoxide
To produce a suitable preparation of active compound, 10 mg of active compound are dissolved in 0.5 mL solvent, and the concentrate is diluted with cattle blood to the desired concentration.
Approximately 20 adult unfed cat fleas (Ctenocephalides felts) are placed in flea chambers. The blood chamber, sealed with parafilm on the bottom, are filled with cattle blood supplied with compound solution and placed on the gauze covered top of the flea chamber, so that the fleas are able to suck the blood. The blood chamber is heated to 37° C. whereas the flea chamber is kept at room temperature.
After 2 days mortality in % is determined. 100% means all the fleas have been killed; 0% means none of the fleas have been killed.

[2] = system: larvae of the banded cucumber beetle (Diabrotica balteata); test: Diabrotica balteata spray test; details: 168 h, after 7 days, wheat seeds, read-out: efficacy (seedling growth); for pest or weed control at 32 µg/disc, 100 g/ha: 100 g/ha (=32 μg/well)
Procedure: Diabrotica balteata—Spray Test
(§2) • Solvent: 78.0 parts by weight of acetone • 1.5 parts by weight of dimethylformamide • Emulsifier: alkylarylpolyglycol ether
(§3) To produce a suitable preparation of active compound, 1 part by weight of active compound is mixed with the stated amount of solvent, and the concentrate is diluted with water, containing an emulsifier concentration of 1000 ppm, to the desired concentration. Further test concentrations are prepared by dilution with emulsifier containing water.
Soaked wheat seeds (Triticum aestivum) are placed in a multiple well plate filled with agar and some water and are incubated for 1 day to germinate (5 seeds per well). The germinated wheat seeds are sprayed with a test solution containing the desired concentration of the active ingredient. Afterwards each unit is infected with 10-20 larvae of the banded cucumber beetle (Diabrotica balteata).
After 7 days efficacy in % is determined. 100% means all the seedlings have grown up like in the untreated, uninfected control; 0% means none of the seedlings have grown.

[3] = system: adult engorged female ticks (Rhipicephalus microplus); test: Rhipicephalus (Boophilus) microplus injection test; details: 168 h, egg deposition monitored after 7 days, read-out: efficacy (infertile eggs); for pest or weed control at 20 µg/tick: 20 μg/tick injected; for pest or weed control at 4 µg/tick: 4 μg/tick injected
Procedure: Rhipicephalus (Boophilus) microplus—Iniectiontest
as §1
To produce a suitable preparation of active compound, 10 mg of active compound are dissolved in 0.5 mL solvent, and the concentrate is diluted with solvent to the desired concentration.
Five adult engorged female ticks (Rhipicephalus microplus) are injected with 1 μL compound solution into the abdomen. The ticks are transferred into replica plates and incubated in a climate chamber.
After 7 days egg deposition of fertile eggs is monitored. Eggs where fertility is not visible are stored in a climate chamber till hatching after about 42 days. An efficacy of 100% means all eggs are infertile; 0% means all eggs are fertile.

[4] = system: adult brown dog ticks (Rhipicephalus sanguineus); test: Rhipicephalus sanguineus in-vitro contact test, adult brown dog ticks; details: 5 μg/cm^2 (=500 g/ha), after 48 hours, read-out: efficacy (ticks dead or moribund)
Procedure: Rhipicephalus sanguineus—In-Vitro Contact Tests with Adult Brown Dog Ticks
(§4) 9 mg compound is solved in 1 mL acetone and diluted with acetone to the desired concentration. 250 μL of the test solution is filled in 25 mL glass test tubes and homogeneously distributed on the inner walls by rotation and tilting on a shaking device (2 h at 30 rpm). With a compound concentration of 900 ppm, an inner surface of 44.7 cm^2 and a homogeneous distribution, a dose of 5 μg/cm^2 is achieved.
(§5) After the solvent has evaporated, each test tube is filled with 5-10 adult brown dog ticks (Rhipicephalus sanguineus), closed with a perforated lid and incubated in a lying position at room temperature and relative humidity. After 48 hours efficacy is determined. The ticks are patted on the ground of the tubes and are incubated on a heating plate at 45-50° C. for at most 5 minutes Immotile or uncoordinated moving ticks, which are not able to escape the heat by climbing upwards, are marked as dead or moribund.
An efficacy of 100% means all ticks are dead or moribund; 0% means no ticks are dead or moribund.

[5] = system: fall armyworm larvae (Spodoptera frugiperda); test: Spodoptera frugiperda spray test; details: in Zea mays, 168 h
Procedure: Spodoptera frugiperda—Spray Test
(§6) • Solvent: 78.0 parts by weight acetone • 1.5 parts by weight dimethylformamide • Emulsifier: alkylarylpolyglycol ether
as §3, with “solvents” for “solvent,”, “and” for “and the concentrate”
Maize (Zea mays) leaf sections are sprayed with a preparation of the active ingredient of the desired concentration. Once dry, the leaf sections are infested with fall armyworm larvae (Spodoptera frugiperda). After 7 days mortality in % is determined. 100% means all caterpillars have been killed and 0% means none of the caterpillars have been killed.

[6] = system: Rhipicephalus (Boophilus) microplus larvae (strain Parkhurst, resistant against synthetic pyrethroids); test: Rhipicephalus (Boophilus) microplus in-vitro contact test, larval cattle tick; details: 5 μg/cm^2 (=500 g/ha), after 48 hours, read-out: efficacy (larvae dead or moribund)
Procedure: Rhipicephalus (Boophilus) microplus—In-Vitro Contact Tests Larval Cattle Tick (Strain Parkhurst, Resistant Against Synthetic Pyrethroids)
as §4
After the solvent has evaporated, each test tube is filled with 20-50 cattle tick larvae (Rhipicephalus microplus), closed with a perforated lid and incubated in a horizontal position at 85% relative humidity and 27° C. in an incubator. After 48 hours efficacy is determined. The larvae are patted on the ground of the tubes and negative geotactic behavior is recorded.
An efficacy of 100% means all larvae are dead or moribund; 0% means no larvae are dead or moribund.

[7] = system: larvae of the southern green stink bug (Nezara viridula); test: Nezara viridula spray test; details: 96 h, after 4 days, barley plants
Procedure: Nezara viridula—Spray Test
as §2, §3
Barley plants (Hordeum vulgare) are sprayed with a test solution containing the desired concentration of the active ingredient and are infested with larvae of the southern green stink bug (Nezara viridula).
After 4 days mortality in % is determined. 100% means all the stink bugs have been killed; 0% means none of the stink bugs have been killed.

[8] = system: adult cat fleas (Ctenocephalides felis); test: Ctenocephalides felis in-vitro contact test, adult cat flea; details: 5 μg/cm^2 (=500 g/ha), after 48 hours, read-out: efficacy (fleas dead or moribund)
Procedure: Ctenocephalides felis—In-Vitro Contact Tests Adult Cat Flea
as §4
as §5, with “cat fleas (Ctenocephalides felis),” for “brown dog ticks (Rhipicephalus sanguineus),”, “fleas” for “ticks”, “fleas,” for “ticks,”
An efficacy of 100% means all fleas are dead or moribund; 0% means no fleas are dead or moribund.

[9] = system: green peach aphid (Myzus persicae); test: Myzus persicae spray test; details: foliar, 120 h, after 5 days, Chinese cabbage leaf disks
Procedure: Myzus persicae—Spray Test
as §6
as §3, with “solvents” for “solvent,”, “and” for “and the concentrate”
Chinese cabbage (Brassica pekinensis) leaf disks infected with all instars of the green peach aphid (Myzus persicae), are sprayed with a preparation of the active ingredient of the desired concentration.
After 5 days mortality in % is determined. 100% means all aphids have been killed and 0% means none of the aphids have been killed.

SMILES | mortality at 100 ppm [1] [%] | pest or weed control at 20 µg/tick [3] [%] | pest or weed control at 5 µg/cm2, 5 µg/cm2 [4] [%] | mortality at 100 g/ha [5] [%] | pest or weed control at 5 µg/cm2, 5 µg/cm2 [6] [%] | pest or weed control at 4 µg/tick [3] [%] | pest or weed control at 5 µg/cm2, 5 µg/cm2 [8] [%] | pest or weed control at 32 µg/disc, 100 g/ha [2] [%] | further results
Cc1cc(OC2CCC2)cc(C(=O)N[C@@H](C)c2ncnn2-c2ccc(C#N)cn2)c1 [Example I-5, N-{(1S)-1-[1-(5-Cyanopyridin-2-yl)-1H-1,2,4-triazol-5-yl]ethyl}-3-(cyclobutyloxy)-5-methylbenzamide] | 100 | 100 | – | – | – | – | – | – | pest or weed control at 160 µg/disc, 500 g/ha ([2]; 500 g/ha (=160 μg/well)): 100%
Cc1nc([C@H](C)NC(=O)c2cc(OC3CCOCC3)cc(C(F)(F)F)c2)n(-c2ccc(C#N)cn2)n1 [Example I-21, N-{(1S)-1-[1-(5-Cyanopyridin-2-yl)-3-methyl-1H-1,2,4-triazol-5-yl]ethyl}-3-(tetrahydro-2H-pyran-4-yloxy)-5-(trifluoromethyl)benzamide] | – | – | 80 | 83 | 100 | – | – | – | –
C[C@H](NC(=O)c1cccc(CC#N)c1)c1ncnn1-c1ccc(C#N)cn1 [Example I-2] | 100 | 100 | – | – | 80 | 100 | – | – | –
Cc1cc(OCC2CC2)cc(C(=O)N[C@@H](C)c2ncnn2-c2ccc(C#N)cn2)c1 [Example I-3, N-{(1S)-1-[1-(5-Cyanopyridin-2-yl)-1H-1,2,4-triazol-5-yl]ethyl}-3-(cyclopropylmethoxy)-5-methylbenzamide] | 100 | 100 | – | – | – | 100 | – | – | mortality at 500 g/ha [5]: 100%
C[C@H](NC(=O)c1cc(Br)cc(C(F)(F)C2CC2)c1)c1ncnn1-c1cnc(C#N)cn1 [Example I-59] | – | – | 100 | 100 | 100 | – | 80 | 100 | mortality at 100 g/ha [7]: 100%; mortality at 500 g/ha [7]: 100%; mortality at 100 g/ha [9]: 90%
Cc1nc([C@H](C)NC(=O)c2cc(OC(C)c3ccc(Cl)cc3)cc(C(F)(F)F)c2)n(-c2ccc(C#N)cn2)n1 (stereo partly drawn) [Example I-15, 3-[1-(4-Chlorophenyl)ethoxy]-N-{(1S)-1-[1-(5-cyanopyridin-2-yl)-3-methyl-1H-1,2,4-triazol-5-yl]ethyl}-5-(trifluoromethyl)benzamide] | – | 100 | 80 | – | – | 100 | – | 100 | –
CC(C#N)c1cccc(C(=O)N[C@@H](C)c2ncnn2-c2ccc(C#N)cn2)c1 (some centres unmarked) [Example I-1] | 100 | 100 | – | – | 90 | – | – | – | –
C[C@H](NC(=O)c1cc(C(F)(F)F)cc(C(C)(C)C#N)c1)c1ncnn1-c1cnc(C#N)cn1 [Example I-58] | – | – | 80 | 100 | 100 | – | 100 | 100 | mortality at 100 g/ha [7]: 100%; mortality at 500 g/ha [7]: 100%; mortality at 100 g/ha [9]: 90%
Cc1nc([C@H](C)NC(=O)c2cc(OCC3CCOCC3)cc(C(F)(F)F)c2)n(-c2ccc(C#N)cn2)n1 [Example I-19, N-{(1S)-1-[1-(5-Cyanopyridin-2-yl)-3-methyl-1H-1,2,4-triazol-5-yl]ethyl}-3-(tetrahydro-2H-pyran-4-ylmethoxy)-5-(trifluoromethyl)benzamide] | 80 | – | – | – | 100 | 100 | – | – | –
C[C@H](NC(=O)c1cc(Br)cc(OC(C)(C)C#N)c1)c1ncnn1-c1ncc(C#N)s1 [Example I-60] | – | – | – | 100 | 100 | – | 80 | 100 | –
